Square brackets hold non-standard residues; d marks the D form. Peptide text beside a SMILES is read from it. * marks the point of attachment. FITC = O=C1OC2(c3ccc(O)cc3Oc3cc(O)ccc32)c2ccc(NC(=S)*)cc21; Ahx = NCCCCCC(=O)O
Columns and labels:
HeLa 229 cells = experiment: cells; type: cell-based; settings: 48 hours incubation
Method: Preliminary cytotoxicity studies have been performed using HeLa 229 cells, to verify the possible effect of the presence of octaarginine chain on the biological activity. These studies have been performed following an incubation during 48 hours and they were later evaluated by cell staining by crystal violet and later acetylation.

HeLa cells = experiment: Cellular internalization assay in live HeLa cells (fluorescence microscopy); type: cell-based
Method: The internalization assays were performed in live HeLa cells.
The internalization assays were performed in live HeLa cells, recording the fluorescence images after 30 min, 90 min and 3 h.

Row | Compound | % Inhibition of the cellular growth (HeLa 229 cells; concentration 5.87 μM) [%] | extent of internalization (intracellular fluorescence) (HeLa cells; images after 30 min, 90 min and 3 h) | intracellular localization of the fluorescence signal (HeLa cells; incubation 90 min at 37° C., FIG. 2) | inhibition at 176.5 µM (HeLa 229 cells; Homo sapiens, HeLa 229, concentration 176.5 μM, read-out: % Inhibition of the cellular growth) [%]
1 | N=C(N)NCCC[C@H](NC(=O)[C@H](CCCNC(=N)N)NC(=O)[C@H](CCCNC(=N)N)NC(=O)[C@H](CCCNC(=N)N)NC(=O)[C@H](CCCNC(=N)N)NC(=O)[C@H](CCCNC(=N)N)NC(=O)[C@H](CCCNC(=N)N)NC(=O)[C@H](CCCNC(=N)N)NC(=O)CCCCCNC(=O)[C@H](CCCCN)NC(=O)CCCCCNC(=S)Nc1ccc2c(c1)C(=O)OC21c2ccc(O)cc2Oc2cc(O)ccc21)C(N)=O [1B] ({FITC-Ahx}-K[Ahx]RRRRRRRR-NH2) | 1 ± 2 | the fluorescence is intense | exclusively localized in the cytoplasm | –
2 | CC(=O)Nc1c[nH]c(C(=O)Nc2cc(C(=O)Nc3cc(C(=O)NCCCN(C)C)n(C)c3)n(C)c2)c1 [compound 9] | – | – | – | 4 ± 3

Reference: patent US20110237499A1, “HYBRID TRIPYRROLE-OCTAARGININE COMPOUNDS AND THEIR USE AS MEDICAMENT IN THE TREATMENT OF CANCER AND MICROBIAL ILLNESSES” (priority 2008, published 2011)
